Patent publication US12509424B2, “Compound and composition as PDGF receptor kinase inhibitor” (NIPPON SHINYAKU CO., LTD., priority 2019, dated 2025)
Read-outs that look alike come from different tables or passages of the source.

Key:
[1] = system: pulmonary arterial smooth muscle cells; test: Suppression of proliferation of pulmonary arterial smooth muscle cells (PDGF-BB stimulation, BrdU); assay type: cell-based; conditions: healthy human derived pulmonary arterial smooth muscle cells, human PDGF-BB 10 ng/mL stimulation, BrdU uptake after 1 day, test substance final concentration 3 to 10,000 nM, read-out: Human normal PASMC proliferation suppression (PDGF stimulation_IC50)
Description: (§1) 1. Preparation of Test Substance
Furthermore, it was diluted by 50 times with distilled water.
2. Measurement of Suppression Action Against Proliferation of Pulmonary Arterial Smooth Muscle Cells
The day after healthy human derived pulmonary arterial smooth muscle cells were seeded onto a 96 well plate using a smooth muscle cell proliferation medium, the proliferation medium was replaced with a 0.1% FBS medium, and the cells were cultured for an additional day. A test substance solution was diluted by 10 times with a medium containing BrdU and human PDGF-BB (final concentration of 10 ng/mL, Sigma-Aldrich) and added to cells in equal amounts so as to reach a final concentration of 3 to 10,000 nM. Also, to the human PDGF-BB negative control, BrdU and 0.1% DMSO solution were added. After culturing for 1 day, the amount of BrdU taken up by the proliferating cells was measured using an anti-BrdU antibody.
(§2) 3. Analysis of Measurement Results

PDGFR-β = PDGFR-β (Homo sapiens (Human), UniProt P09619); test: PDGFR-β tyrosine kinase inhibitory action (HTRF KinEASE-TK); assay type: biochemical; conditions: PDGFR-β enzyme 1 ng/μL, 30° C. for 30 minutes; read-out: PDGF-β IC50
PDGFR-β, sequence (P09619 33-1106): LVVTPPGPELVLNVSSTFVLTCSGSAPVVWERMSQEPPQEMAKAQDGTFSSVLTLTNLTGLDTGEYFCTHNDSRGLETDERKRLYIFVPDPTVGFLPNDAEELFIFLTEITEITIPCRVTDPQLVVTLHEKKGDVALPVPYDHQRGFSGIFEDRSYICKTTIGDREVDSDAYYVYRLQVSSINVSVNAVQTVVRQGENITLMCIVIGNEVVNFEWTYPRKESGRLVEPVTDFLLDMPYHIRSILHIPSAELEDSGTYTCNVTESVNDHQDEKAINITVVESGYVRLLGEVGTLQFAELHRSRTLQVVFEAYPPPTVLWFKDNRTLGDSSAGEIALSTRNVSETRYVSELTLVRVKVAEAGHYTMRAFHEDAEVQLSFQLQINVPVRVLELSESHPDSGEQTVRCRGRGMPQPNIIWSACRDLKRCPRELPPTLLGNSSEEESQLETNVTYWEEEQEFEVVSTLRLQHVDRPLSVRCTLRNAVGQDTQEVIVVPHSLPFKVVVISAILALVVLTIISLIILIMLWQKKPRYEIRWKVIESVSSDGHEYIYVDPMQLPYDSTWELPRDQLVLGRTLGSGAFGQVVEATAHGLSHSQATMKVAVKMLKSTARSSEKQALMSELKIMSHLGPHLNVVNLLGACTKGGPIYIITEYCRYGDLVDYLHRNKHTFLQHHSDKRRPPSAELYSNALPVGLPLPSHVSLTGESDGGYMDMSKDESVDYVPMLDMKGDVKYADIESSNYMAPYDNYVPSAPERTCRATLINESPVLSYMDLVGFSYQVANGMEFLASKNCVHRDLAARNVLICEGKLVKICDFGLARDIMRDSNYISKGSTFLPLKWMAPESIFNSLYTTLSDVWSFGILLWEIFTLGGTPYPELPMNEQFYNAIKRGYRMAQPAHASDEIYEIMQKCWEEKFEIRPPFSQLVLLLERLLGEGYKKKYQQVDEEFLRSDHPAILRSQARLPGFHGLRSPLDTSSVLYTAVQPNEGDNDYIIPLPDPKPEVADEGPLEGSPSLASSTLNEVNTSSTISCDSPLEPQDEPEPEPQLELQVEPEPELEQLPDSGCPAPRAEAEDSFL
Description: as §1
This DMSO solution was diluted by 8 times with an assay buffer 1 (50 mM HEPES (pH 7.0), 0.02% NaN3, 0.01% Bovine Serum Albumin, 0.1 mM orthovanadate, 1 mM Dithiothreitol, 5 mM MgCl2, and 1 mM MnCl2) and further diluted by 5 times with an assay buffer 2 (50 mM HEPES (pH 7.0), 0.02% NaN3, 0.01% Bovine Serum Albumin, 0.1 mM orthovanadate, 1 mM Dithiothreitol, 5 mM MgCl2, 1 mM MnCl2, and 40 nM Supplemented Enzymatic Buffer (cisbio)).
2. Measurement of PDGFR-β Tyrosine Kinase Inhibitory Action
For the measurement, the HTRF KinEASE-TK kit from Cisbio Bioassays SAS was used. To a 384 well plate, the test substance solution was added at 4 μL each, then 2 μL of a PDGFR-β enzyme solution (final concentration of 1 ng/μL, Carna Biosciences, Inc.) and 4 μL of a substrate solution obtained by adding 0.6 μM ATP to TK substrate-3-biotin (cisbio) were added, and the solution was allowed to react at 30° C. for 30 minutes at a final concentration of the test substance being 0.01 to 10,000 nM.
Thereafter, 10 μL of a detection solution (cisbio) was added to each well and allowed to react at 30° C. for 1 hour. The fluorescence intensity was measured with a microplate reader (Spectra Max M5, Molecular device).
as §2

IC50 (PDGFR-β) [nM] | SMILES | IC50 ([1]; PASMC, 24 h) [nM] | IC50 [1] [nM]
170 | Cc1ccc(C(=O)N[C@H]2CCCC[C@@H]2O)cc1NCc1ccc(NC(=O)N(C)C2CC2)nc1 [Example 133, 3-{[(6-{[cyclopropyl(methyl)carbamoyl]amino}pyridin-3-yl)methyl]amino}-N-[(1S,2S)-2-hydroxycyclohexyl]-4-methylbenzamide] | 110 | 
170 | Cc1ccc(C(=O)N[C@H]2CCCC[C@@H]2O)cc1NCc1ccc(NC(C)C)nc1 [Example 134, N-[(1S,2S)-2-hydroxycyclohexyl]-4-methyl-3-[({6-[(propan-2-yl)amino]pyridin-3-yl}methyl)amino]benzamide] | 60 | 
120 | Cc1ccc(C(=O)N[C@H]2CCCC[C@@H]2O)cc1NCc1cnc(N[C@@H]2CCOC2)nc1 [Example 135, N-[(1S,2S)-2-hydroxycyclohexyl]-4-methyl-3-{[(2-{[(3R)-oxolan-3-yl]amino}pyrimidin-5-yl)methyl]amino}benzamide] | 390 | 
32 | Cc1ccc(C(=O)N[C@H]2CCCC[C@@H]2O)cc1NCc1cnc(N[C@H]2CCOC2)nc1 [Example 136, N-[(1S,2S)-2-hydroxycyclohexyl]-4-methyl-3-{[(2-{[(3S)-oxolan-3-yl]amino}pyrimidin-5-yl)methyl]amino}benzamide] | 150 | 
41 | Cc1ccc(C(=O)N[C@H]2CCCC[C@@H]2O)cc1NCc1ccc(NC(=O)C2CCOCC2)nc1 [Example 137, N-{5-[(5-{[(1S,2S)-2-hydroxycyclohexyl]carbamoyl}-2-methylanilino)methyl]pyridin-2-yl}oxane-4-carboxamide] | 60 | 
16 | COC1CC(C(=O)Nc2ccc(CNc3cc(C(=O)N[C@H]4CCCC[C@@H]4O)ccc3C)cn2)C1 (stereo partly drawn) [Example 138, N-[(1S,2S)-2-hydroxycyclohexyl]-3-{[(6-{[(1r,3r)-3-methoxycyclobutane-1-carbonyl]amino}pyridin-3-yl)methyl]amino}-4-methylbenzamide] |  | 51
30 | Cc1ccc(C(=O)N[C@H]2CCCC[C@@H]2O)cc1NCc1ccc(NC(=O)C2CCOC2)nc1 (stereo partly drawn) [Example 139, N-{5-[(5-{[(1S,2S)-2-hydroxycyclohexyl]carbamoyl}-2-methylanilino)methyl]pyridin-2-yl}oxolane-3-carboxamide] | 100 | 
330 | Cc1ccc(C(=O)N[C@H]2CCCC[C@@H]2O)cc1NCc1ccc(-n2ccnn2)nc1 [Example 140, N-[(1S,2S)-2-hydroxycyclohexyl]-4-methyl-3-({[6-(1H-1,2,3-triazol-1-yl)pyridin-3-yl]methyl}amino)benzamide] | 43 | 
69 | Cc1ccc(C(=O)N[C@H]2CCCC[C@@H]2O)cc1NCc1ccc(NC2COC2)nc1 [Example 141, N-[(1S,2S)-2-hydroxycyclohexyl]-4-methyl-3-[({6-[(oxetan-3-yl)amino]pyridin-3-yl}methyl)amino]benzamide] | 190 | 
210 | Nc1ncc(CNc2cc(C(=O)N[C@H]3CCCC[C@@H]3O)ccc2Cl)cn1 [Example 142, 3-{[(2-aminopyrimidin-5-yl)methyl]amino}-4-chloro-N-[(1S,2S)-2-hydroxycyclohexyl]benzamide] | 130 | 
97 | Cc1c(F)cc(C(=O)N[C@H]2CCCC[C@@H]2O)cc1NCc1cnc(N)nc1 [Example 143, 3-{[(2-aminopyrimidin-5-yl)methyl]amino}-5-fluoro-N-[(1S,2S)-2-hydroxycyclohexyl]-4-methylbenzamide] | 90 | 
65 | Cc1ccc(C(=O)N[C@H]2CCCC[C@@H]2O)cc1NCc1cnc2c(c1)OCCN2 [Example 144, 3-{[(3,4-dihydro-2H-pyrido[3,2-b][1,4]oxazin-7-yl)methyl]amino}-N-[(1S,2S)-2-hydroxycyclohexyl]-4-methylbenzamide] | 39 | 
